Values joined by “and” are separate entries in the source; they are usually repeats but may differ in a detail not shown here. Equal values may be shown once.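 Cells were grown in 96-well plates and exposed to each compound for 48 hours at five concentrations; endpoints were interpolated linearly between bracketing concentrations, or set to the highest concentration if not reached. Here, GI50 denotes the concentration required for 50% inhibition of growth. The concentration for full growth arrest is given as TGI.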
Tests used:
Assay in all cases: NCI anticancer screen, dose series, 48 h
[1] = test system: HCC-2998 colon
[2] = test system: A549 NSCLC
[3] = test system: M14 melanoma
[4] = test system: SN12C renal
[5] = test system: UACC-62 melanoma
[6] = test system: SF-268 CNS
[7] = test system: UACC-257 melanoma
[8] = test system: KM12 colon
[9] = test system: SR leukemia
[10] = test system: HCT-15 colon

Compound | GI50 [1] [µM] | TGI [1] | GI50 [2] [µM] | TGI [2] | GI50 [3] [µM] | TGI [3] | GI50 [4] [µM] | TGI [4] | GI50 [5] [µM] | TGI [5] [µM] | GI50 [6] [µM] | TGI [6] [µM] | GI50 [7] [µM] | TGI [7] | GI50 [8] [µM] | TGI [8] | GI50 [9] [µM] | TGI [9] | GI50 [10] [µM] | TGI [10]
C=C1C(=O)O[C@H]2[C@H]1CC/C(COC(=O)CCCCC(=O)OC/C1=C/CC[C@@]3(C)O[C@H]3[C@H]3OC(=O)C(=C)[C@@H]3CC1)=C\CC[C@@]1(C)O[C@@H]21 | 2.09 | 3.94 µM | 58.2 | > 100 µM | 1.95 | 5.31 µM | 2.62 | > 100 µM | 1.7 | 4.04 | 3.02 | > 100 | 1.82 | 4.4 µM | 2.94 | 12.4 µM | 0.584 | > 100 µM | 1.73 | 4.2 µM
CCC(C)(C)C(=O)O[C@H]1C[C@@H](C)C=C2C=C[C@H](C)[C@H](CC[C@@H]3C[C@@H](O)CC(=O)O3)[C@H]21 | 7.89 | 22.1 µM and > 30 µM | 6.79 | 20.4 µM and 18.8 µM | 2.89 | 16.7 µM and 8.09 µM | 0.949 | 16.5 µM and > 30 µM | 0.578 |  | 0.715 | 15.4 | 10.8 | 25 µM and > 30 µM | 11.2 | 24.1 µM and > 30 µM | 1.72 | 13.1 µM and > 30 µM | 2.15 | 19 µM and > 30 µM
O=C1NN(c2ccc(C(=O)O)cc2)C(=O)/C1=C\c1ccc([N+](=O)[O-])o1 | > 100 | > 100 µM | > 100 | > 100 µM | 28.6 | 88 µM | 58.8 | > 100 µM | 62 | > 100 | 61.2 | > 100 | > 100 | > 100 µM | > 100 | > 100 µM | 32.9 | > 100 µM | 20.4 | 45.4 µM
[O-]c1c2c(nn1-c1ccccc1)c1ccccc1c[n+]2Cc1ccccc1 |  | > 100 µM |  | > 100 µM |  | > 100 µM |  | > 100 µM |  | > 100 |  | > 100 |  | > 100 µM |  | > 100 µM |  | > 100 µM |  | > 100 µM
Oc1ccc2cc(Br)ccc2c1-c1c(O)ccc2cc(Br)ccc12 | 2.22 | 4.8 µM | 3.78 | 13.1 µM | 3.91 | 14 µM | 2.04 | 4.81 µM | 2.2 | 8.5 | 3.27 | 13.2 | 10.1 | 22.6 µM | 2.93 | 10.4 µM | 2.52 | 7.43 µM | 3.2 | 12.1 µM
O=C(O)/C=C/n1c2ccccc2c(=O)c2ccccc21 |  | > 100 µM |  | > 100 µM |  | > 100 µM |  | > 100 µM |  | > 100 |  | > 100 |  | > 100 µM |  | > 100 µM |  | > 100 µM |  | > 100 µM
Cc1nn(-c2nc3ccccc3s2)c(C)c1Oc1ccccc1O | 5.73 | 18.9 µM | 6.14 | 22.5 µM | 11.8 | 24.8 µM | 6.92 | 22 µM | 2.91 | 18.1 | 5.31 | 20.8 | 3.64 | 14.7 µM | 6.99 | 20.1 µM | 0.536 | 2.05 µM | 0.762 | 17.7 µM
CCC[CH2][Sn]1([CH2]CCC)[O]C(=O)c2cc(I)cc(I)c2[O]1 | 1.37 | 2.7 µM | 2.72 | 8.41 µM | 1.66 | 3.17 µM | 1.42 | 2.96 µM | 1.01 | 2.17 | 1.29 | 2.89 | 1.24 | 2.55 µM | 1.61 | 2.99 µM | 0.279 | 1.7 µM | 1.28 | 2.93 µM
CCOc1c(Br)cc(C2C(C(=O)OC)=CN(C)C=C2C(=O)OC)cc1OC | > 100 | > 100 µM | 47.8 | > 100 µM | 64.1 | > 100 µM | 78.6 | > 100 µM | 50.2 | > 100 | > 100 | > 100 | 72.3 | > 100 µM | 38.6 | > 100 µM | 30.6 | > 100 µM | 33.9 | > 100 µM
C[n+]1c(/C=C\c2ccc(Cl)cc2)ccc2ccccc21 | 31.6 | > 100 µM | 1.04 | > 100 µM | 12.9 | 46.7 µM | 4.13 | 84 µM | 17.7 | 52 | 29.8 | > 100 | 16.2 | 62.4 µM | 3.6 | 15 µM | 45.8 | > 100 µM | 53.2 | > 100 µM
O=S(=O)(/C=C/c1ccc(Cl)cc1Cl)Cc1ccccc1CS(=O)(=O)/C=C/c1ccc(Cl)cc1Cl |  | > 100 µM |  | > 100 µM |  | > 100 µM |  | > 100 µM |  | > 100 |  | > 100 |  | > 100 µM |  | > 100 µM |  | > 100 µM |  | > 100 µM
Cn1cncc1[C@@](N)(c1ccc(Cl)cc1)c1ccc2c(c1)c(-c1cccc(Cl)c1)cc(=O)n2C | 1.79 | 7.08 µM | 2.05 | 10.2 µM | 0.0818 | 11.1 µM | 2.48 | 14.9 µM | 0.42 | 12.5 | 3.01 | 14.7 | 1.37 | 12.4 µM | 1.18 | 7.02 µM | 0.165 | 4.32 µM | 2.08 | 11.9 µM
Cn1cc(C2=C(c3cccc4ccccc34)C(=O)NC2=O)c2ccccc21 | 12.2 | > 25 µM | 7.63 | > 25 µM | 11.5 | > 25 µM | 6.58 | > 17.5 µM | 8.33 | > 25 | 9.17 | > 25 | 12.1 | > 25 µM | 7.3 | > 22.6 µM | 7 | > 20.9 µM | 6.66 | > 25 µM
Cc1[nH]c2ccccc2c1C1Cc2ccccc2N1C(=O)/C=C/C=C/c1ccccc1 (stereo not drawn) |  | > 100 µM |  | > 100 µM |  | > 100 µM |  | > 100 µM |  | > 100 |  |  |  | > 100 µM |  | > 100 µM |  | > 100 µM |  | > 100 µM
CCOc1cccc(/C=N/NC(=O)c2ccc(Nc3ccnc(C(F)(F)F)c3)cc2)c1O | 1.49 | > 20.4 µM | 2.13 | > 69.1 µM | 1.19 | > 24.6 µM | 2.45 | > 100 µM | 0.774 | > 61 | 1.07 | > 100 | 0.728 | > 21.1 µM | 1.62 | > 58.4 µM | 0.236 | > 100 µM | 0.515 | > 100 µM
COc1ccc2nc(-c3cc(-c4cc(OC)c(OC)c(OC)c4)n[nH]3)[nH]c2c1 | 3.03 | 10.6 µM | 1.63 | 5.25 µM | 1.66 | 4.31 µM | 2.06 | 8.45 µM | 1.12 | 2.52 | 2.74 | 9.38 | 1.67 | 3.69 µM | 1.7 | 3.69 µM | 1.74 | 8.38 µM | 2.5 | 10.7 µM
CC[C@@H](C(=O)[C@@H](C)[C@@H](O)[C@H](C)[C@@H]1O[C@@H]([C@@H](CC)C(=O)O)CC[C@@H]1C)C1O[C@]2(C=CC(=O)[C@]3(CC[C@@](C)([C@H]4CC[C@](O)(CC)[C@H](C)O4)O3)O2)[C@H](C)C[C@@H]1C (stereo partly drawn) | 0.152 | 12.6 µM | 0.342 | 22.7 µM | 1.41 | 3.53 µM | 0.179 | 15 µM | 1.29 | 2.67 | 2.12 | 15.7 | 0.169 | 16.7 µM | 0.515 | 6 µM | 0.0969 |  | 0.644 | 14.3 µM
Cc1cc(O)cc2oc(=O)c3c(O)cc(O)cc3c12 |  | 40.8 µM |  | 86 µM |  | > 100 µM |  | > 100 µM |  | 81 |  | 76.5 |  | > 100 µM |  | > 100 µM |  | > 100 µM |  | 45.4 µM
Cc1nc(Cl)nc(Cl)c1C |  | > 100 µM |  | > 100 µM |  | > 100 µM |  | > 100 µM |  |  |  | > 100 |  | > 100 µM |  | > 100 µM |  | > 100 µM |  | > 100 µM
Cn1ccnc1C(=O)/C=C/c1ccc(C(=O)Nc2ccc(Cl)cc2)cc1 | 0.655 | 1.43 µM | 0.951 | > 33.3 µM | 0.968 | 4.96 µM | 1.01 | 5.07 µM | 1.55 | 7.59 | 1.37 | > 33.3 | 2.48 | > 33.3 µM |  |  | 0.255 | 1.56 µM | 0.676 | 3.12 µM
CS(=O)(=O)NNS(=O)(=O)c1cccc([N+](=O)[O-])c1 |  | > 100 µM |  | > 100 µM |  | > 100 µM |  | > 100 µM |  | > 100 |  |  |  | > 100 µM |  | > 100 µM |  | > 100 µM |  | > 100 µM

— PubChem BioAssay (NCI)
